Reference: PMC8518537, “N‐(Anilinoethyl)amide Melatonergic Ligands with Improved Water Solubility and Metabolic Stability” (Chemmedchem, 2021)
≈ marks a conversion by molar mass, not a printed value. Like-named read-outs stand apart in the source and are kept apart here.

Experiments:
[1] = Metabolic stability in human liver microsomes; type: in vitro ADME; details: for CLi Human LM (intrinsic clearance) / half-life at 5 μM: human liver microsomes 1 mg protein/mL, 5 μM compound, mean±SD; for CLi Human LM (intrinsic clearance): 37 °C; for half-life at 5 μM: NADPH-regenerating system, pH 7.4, 37 °C, read-out: t 1/2 Human LM
[2] = Experimental lipophilicity, shake-flask n-octanol/water; type: physicochemical; details: n-octanol/50 mM MOPS buffer pH 7.4, 25±1 °C, mean±SD of three, read-out: Log D oct,7.4
Description: Chosen buffer was 50 mM zwitterionic MOPS (3‐morpholinopropanesulfonic acid), pH 7.4 to avoid ionic couple partitioning, with ionic strength adjusted to 0.15 M by KCl addition. Compounds, after partitioning overnight, and dilution of both phases with methanol, were dosed in the HPLC‐UV system, as detailed below. Reported log D oct,7.4 values are the mean of three measurements±standard deviation.
HPLC columns were a RP‐C18 Supelco Discovery (Supelco, Bellefonte, PA, USA), 5 μm, 150×4.6 mm i.d. for all compounds except 13, and a Phenomenex Gemini, 5 μm, 150×4.6 mm i.d. for compound 13 (Phenomenex). Elution conditions were optimized for each compound at a flow rate of 1 mL min^−1 employing mobile phases consisting of water and acetonitrile at different percentages, while UV detection was set at λ = 254 nm. For compound 13, the mobile phase consisted of a 10 mM ammonium acetate buffer pH 7.0 and methanol and the UV detection was set at λ = 281 nm.

human MT2 receptors [3] = biological target: T1, human MT2 receptors (Homo sapiens, UniProt P49286); assay: Radioligand binding, 2-[125I]iodomelatonin competition at MT2; details: cloned human MT2 in CHO cells; from IC50 by Cheng-Prusoff; mean±SD of three determinations; read-out: MT2 K i
T1 sequence (P49286 1-362): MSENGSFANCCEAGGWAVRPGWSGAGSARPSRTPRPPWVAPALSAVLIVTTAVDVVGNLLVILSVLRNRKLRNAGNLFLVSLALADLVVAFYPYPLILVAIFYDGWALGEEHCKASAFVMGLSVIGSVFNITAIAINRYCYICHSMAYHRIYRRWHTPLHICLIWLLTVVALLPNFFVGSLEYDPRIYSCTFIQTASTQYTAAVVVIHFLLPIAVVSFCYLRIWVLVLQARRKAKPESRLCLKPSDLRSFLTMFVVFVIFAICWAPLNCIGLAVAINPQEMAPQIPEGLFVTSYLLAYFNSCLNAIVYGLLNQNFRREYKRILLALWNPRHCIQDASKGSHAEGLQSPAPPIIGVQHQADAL
Description: (§3) After incubation, the % of radioligand binding inhibition was determined via a scintillation counting method. The radioligand binding experiments were performed in triplicate. IC50 values were determined by nonlinear regression analysis of the competition curves using Hill equation curve fitting. The pK i values were calculated from the IC50 values in accordance with the Cheng‐Prusoff equation.[28]

human MT1 receptors [4] = biological target: T2, human MT1 receptors (Homo sapiens, UniProt P48039); assay: Radioligand binding, 2-[125I]iodomelatonin competition at MT1; details: cloned human MT1 in CHO cells; from IC50 by Cheng-Prusoff; mean±SD of three determinations; read-out: MT1 K i
Description: as §3

[5] = Metabolic stability in rat liver microsomes; type: in vitro ADME; details: for CLi Rat LM (intrinsic clearance) / half-life at 5 μM: rat liver microsomes 1 mg protein/mL, 5 μM compound, mean±SD; for CLi Rat LM (intrinsic clearance): 37 °C; for half-life at 5 μM: NADPH-regenerating system, pH 7.4, 37 °C, read-out: t 1/2 Rat LM
Description: Each compound (final concentration: 5 μM) was incubated in the presence of rat or human liver microsomes (final concentration: 1 mg protein/mL) and of a NADPH‐regenerating system (final concentrations: 2 mM NADP^+, 10 mM glucose‐6‐phosphate, 0.4 U mL^−1 glucose‐6‐phosphate dehydrogenase, 5 mM MgCl2) in a 10 mM Phosphate Buffered Saline (PBS) solution, pH 7.4, at 37 °C. Compound was added after a 10 min pre‐incubation at 37 °C and. at stated time points, depending on compound kinetics, sample aliquots were withdrawn, metabolic reaction was quenched by acetonitrile addition (1 : 2), and after a centrifugation step (9000 g, 10 min, 4 °C) the supernatant was analyzed by HPLC‐UV‐VIS.
Apparent half‐lives (t1/2 in min) for the metabolic clearance of compounds were calculated from the pseudo first‐order rate constants (k) obtained by linear regression of the log chromatographic peak area versus time plots and are reported as means of three experiments±standard deviation. Intrinsic clearance (CLi) values of the compounds were calculated using the following equation: CLi (μL×min^−1×mg protein^−1)=k×V where V (μL×mg protein^−1)=incubation volume/mg protein added.
Pooled rat and human liver microsomes (20 mg/mL) were supplied by BD Biosciences (BD Biosciences, Woburn, MA, USA). Acetonitrile and methanol were HPLC grade and were supplied by Sigma‐Aldrich (Sigma‐Aldrich srl, Milan, Italy). Water was freshly bidistilled before use. All other reagents were purchased in the highest purity available.
PeakSimple 2.83 software was employed for data acquisition and HPLC peak integration. HPLC columns were a RP‐C18 Supelco Discovery (Supelco, Bellefonte, PA, USA), 5 μm, 150×4.6 mm i.d. for all compounds except 13, and a Phenomenex Gemini, 5 μm, 150×4.6 mm i.d. for compound 13 (Phenomenex). Elution conditions were optimized for each compound at a flow rate of 1 mL min^−1 employing mobile phases consisting of water and acetonitrile at different percentages, while UV detection was set at λ = 254 nm. For compound 13, the mobile phase consisted of a 10 mM ammonium acetate buffer pH 7.0 and methanol and the UV detection was set at λ = 281 nm.

[6] = Thermodynamic solubility, shake flask method; type: physicochemical; details: thermodynamic from solid, room temperature overnight, mean±SD, triplicate
Description: Thermodynamic solubility values were measured in two different buffers (pH 1.0; pH 7.4) by the shake flask method.[65] 1 mg of each compound was placed in 1 mL of appropriate buffer and shaken at room temperature overnight. The resulting suspension was centrifuged (10 min, 10000 g, 20 °C) and the supernatant analyzed by HPLC‐UV. Solubility values were interpolated from calibration curves prepared from concentrated DMSO stock solutions of each compound. Reported solubility values are the mean of three measurements±standard deviation.
It consisted of a LC‐10ADvp solvent delivery module, a 20 μL Rheodyne sample injector (Rheodyne LLC, Rohnert Park, CA, USA) and a SPD‐10Avp UV‐VIS detector. PeakSimple 2.83 software was employed for data acquisition and HPLC peak integration. […] Elution conditions were optimized for each compound at a flow rate of 1 mL min^−1 employing mobile phases consisting of water and acetonitrile at different percentages, while UV detection was set at λ = 254 nm.

human MT2 receptors [7] = biological target: T1, human MT2 receptors; assay: Agonist activity at MT2, cAMP assay; type: cell-based; details: for EC50: cAMP assay, CHO cells expressing human MT2, mean±SD, triplicate; for functional profile (intrinsic activity): cAMP functional assay at MT2 (with MT1 cell impedance data of Table 3); for Emax: read-out: MT2 E max
Description: (§1) The in vitro pharmacology experiments were conducted at Cerep (Celle‐Lévescault, France) following radioligand binding and cellular functional assays developed elsewhere.[60, 61, 62]
(§2) To define the functional activity of the new compounds, cellular functional assays were performed on CHO cells stably expressing human MT1 or MT2 receptors. Agonist activity at MT1 receptors was evaluated using a cell impedance assay measured by cellular dielectric spectroscopy,[62] and at MT2 receptors with an cAMP assay, measured by a fluorometric method.[61] The EC50 values were determined by non‐linear regression analysis of the concentration‐response curves. Experiments were performed in triplicate.

human MT1 receptors [8] = biological target: T2, human MT1 receptors; assay: Agonist activity at MT1, cell impedance assay (cellular dielectric spectroscopy); type: cell-based; details: for EC50: cell impedance assay, CHO cells expressing human MT1, mean±SD, triplicate; for Emax: read-out: MT1 E max
Description: as §1, §2

[9] = In vivo pharmacokinetic study in rat plasma; set-up: species or system Sprague‐Dawley rats; details: for Vd / bioavailability / AUC / Cmax / clearance / half-life: male; for Vd / bioavailability: plasma; for Vd / bioavailability / F (oral bioavailability): rat; for Vd: read-out: V ss; for bioavailability / F (oral bioavailability): PO 40 mg kg^−1 vs IV 5 mg kg^−1; for bioavailability: read-out: F (oral bioavailability); for AUC / Cmax / clearance / half-life: rat plasma
Description: To evaluate the in vivo behavior of the two melatonergic ligands 14 and 19, a preliminary pharmacokinetic (PK) study was carried out in male Sprague‐Dawley rats. The compounds were administered as intravenous bolus (IV) or by oral gavage (PO) at doses of 5 or 40 mg kg^−1, respectively. Quantitative analysis was carried out by UPLC/MS/MS and the plasma concentration profiles are shown in Figure 3, while the main PK parameters are listed in Table 4.
The in vivo pharmacokinetic experiments were conducted at NiKem Research (Baranzate – Milan – Italy). PK studies were performed using Sprague‐Dawley CD (albino) male rats (7–9 weeks‐old, weight 160–200 grams, Charles River Lab. Italia, Calco). Animals were housed under standard conditions and had free access to water and standard laboratory rodent diet. Care and husbandry of animals were in conformity with the institutional guidelines, in compliance with national and international laws and policies (EEC Council Directive 86/609, OJL 358 m, 1, Dec. 122, 1987; NIH Guide for the care and Use of Laboratory Animals, NIH Publication No. 86–23, 1985). The compounds were dissolved in water containing 3 % DMSO and 20 % Encapsin (and a stechiometric amount of HCl for 14) at a concentration of 2.5 mg mL^−1 for the IV (bolus) dose, or in water containing 5 % DMSO and 10 % encapsin (and a stechiometric amount of HCl for 14) at a concentration of 4 mg mL^−1 for PO (gavage) dose. Rats were randomly assigned to four treatment groups (n=3) and received a single IV bolus dose (5 mg kg^−1) or a single oral administration (40 mg kg^−1) through oral gavage of compound 14 or 19. Serial blood samples ([…]) were collected from caudal vein at 5, 30, 60, 120, 480 and 1440 min after IV injection, or at 15, 30, 60, 120, 480 and 1440 min after PO administration. Blood samples were collected in heparinized eppendorfs (Heparin Vister 5000 U.I./mL_Marvecs Pharma), gently mixed and placed on ice; then blood was centrifuged (3500×g, at 4 °C for 15 min), the plasma was collected and immediately frozen at −80 °C until submission to UPLC/MS/MS analysis. For the sample preparation, 100 μL of plasma spiked with 5 μL of internal standard (I.S.; 19 for compound 14 and 14 for compound 19; 2.5 μg mL^−1;) were added to a SW96 deep well plate (Waters) containing 300 μL of acetonitrile. The plate was shaken for 10 min and then centrifuged at 3000 rpm for 15 min. UPLC/MS/MS analyses were performed on an Acquity UPLC, coupled with a sample organizer and interfaced with a triple quadrupole Premiere XE (Waters, Milford, USA). LC runs (inj. vol. 5 μL) were carried out at 50 °C on Acquity BEH C18 columns (1.7 μm, 2.1×50 mm) at a flow rate of 0.45 mL min^−1. Mobile phases consisted of a phase A (water) and a phase B (0.1 % formic acid in acetonitrile). The column was conditioned with 2 % phase B for 0.2 min, then brought to 100 % phase B within 0.6 min and maintained at these conditions for 1.1 min. Analyses were carried out using a positive electrospray ionization [ESI(+)] interface in multiple reaction monitoring (MRM) mode. Capillary 3.5 Kv; extractor 3 V; source T 140 °C, desolvation T 450 °C. Transitions: for compound 14 Q1/Q3 315.2/86, CV 14, CE16+315.2/238 CV 14, CE19; for I.S. (compound 19): 301.1/86 CV 14 CE16; LLOQ: 1 ng ml^−1. Transitions: for compound 19 Q1/Q3: 301.1/86CV 14 CE16; for I.S. (compound 14) 315.2/238CV 14, CE19; LLOQ: 1 ng mL^−1. Pharmacokinetic analysis was performed by non‐compartmental analysis (NCA) using the WinNonlin 5.1 software (Pharsight, Mountain View, CA, USA. Absolute oral bioavailability (F) was calculated by linear trapezoidal rule using the relationship: F=[doseIV×AUCoral o‐∞/doseoral×AUCIV o‐∞]×100.

[10] = buffer pH 1.0, simulated gastric fluid, pH 1.0 buffer, read-out: Solubility pH 1.0
[11] = buffer pH 7.4, aqueous buffer, pH 7.4 buffer, read-out: Solubility pH 7.4
[12] = Sprague-Dawley, IV bolus 5 mg kg^−1
[13] = Sprague-Dawley, PO gavage 40 mg kg^−1
[14] = Sprague-Dawley CD, IV bolus 5 mg kg^−1
[15] = Sprague-Dawley CD, PO gavage 40 mg kg^−1

T2 sequence (P48039 whole entry): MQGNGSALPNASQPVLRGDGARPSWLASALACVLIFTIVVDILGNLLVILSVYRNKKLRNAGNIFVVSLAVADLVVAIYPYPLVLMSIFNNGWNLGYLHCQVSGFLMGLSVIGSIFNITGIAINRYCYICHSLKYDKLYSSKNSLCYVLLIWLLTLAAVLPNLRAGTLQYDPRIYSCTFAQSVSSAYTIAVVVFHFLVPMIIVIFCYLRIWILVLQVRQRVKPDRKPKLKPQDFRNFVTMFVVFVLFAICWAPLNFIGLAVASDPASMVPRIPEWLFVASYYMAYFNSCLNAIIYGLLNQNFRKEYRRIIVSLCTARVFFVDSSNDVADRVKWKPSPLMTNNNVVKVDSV

| Compound | CLi Human LM (intrinsic clearance) [1] [μL min^−1 mg prot^−1] | half-life at 5 μM [1] [min] | logD ([2]; n-octanol/water (MOPS buffer)) | Ki (human MT2 receptors [3]) [nM] | Ki (human MT1 receptors [4]) [nM] | melting point [°C] | CLi Rat LM (intrinsic clearance) [5] [μL min^−1 mg prot^−1] | half-life at 5 μM [5] [min] | solubility [6, 10] [µg/mL] | solubility [6, 11] [µg/mL] | EC50 (human MT2 receptors [7]) [nM] | functional profile (intrinsic activity) (human MT2 receptors [7]) | Emax (human MT2 receptors [7]) [%] | EC50 (human MT1 receptors [8]) [nM] | Emax (human MT1 receptors [8]) [%] | F (oral bioavailability) [9] | other results |
| --- | --- | --- | --- | --- | --- | --- | --- | --- | --- | --- | --- | --- | --- | --- | --- | --- | --- |
| CCCNC(=O)NCCN(c1ccccc1)c1cccc(OC)c1 [Compound 6 c, 1‐{2‐[(3‐Methoxyphenyl)phenylamino]ethyl}‐3‐propylurea] | 95.7±14.7 | 7.4 ± 1.2 | 3.91 ± 0.02 | 1.7 ± 0.08 | 57 ± 0.1 | 63 to 65 | 218.4±21.2 | 3.2 ± 0.3 | 17.7 ± 0.9 (≈ 54.1 µM) | 14.3 ± 0.1 (≈ 43.7 µM) | – | – | – | – | – | – | – |
| CC(=O)NCCN(c1ccc(F)cc1)c1cccc(C(F)F)c1 [Compound 10, N ‐(2‐{[3‐(Difluoromethyl)phenyl](4‐fluorophenyl)amino}ethyl)acetamide] | 12.8±1.3 | 55.4 ± 6.8 | 3.45 ± 0.02 | 35 ± 0.35 | > 100 | 76 to 77 | 58.0±8.2 | 12.2 ± 1.5 | 54.9 ± 1.1 (≈ 170 µM) | 40.6 ± 0.1 (≈ 126 µM) | – | – | – | – | – | – | – |
| COc1cccc(N(CCNC(C)=O)c2cccc(CO)c2)c1 [Compound 14, N ‐{2‐[(3‐Hydroxymethylphenyl)(3‐methoxyphenyl)amino]ethyl} acetamide] | 10.8±1.2 | 64.9 ± 6.9 | 2.04 ± 0.01 | 3.5 ± 0.05 | > 100 | – | 241.4±28.5 | 2.9 ± 0.3 | > 1000 | > 1000 | 6.8 ± 0.3 | MT2‐selective partial agonist | 71 ± 2 | 53 ± 0.5 | 32 ± 3 | very low | increase of human microsomal stability compared to UCM765 ([1]; human liver microsomes, versus UCM765): approximately 1.5 fold; Vd [9, 12]: 0.9 ± 0.2 L/kg; bioavailability ([9]; Sprague-Dawley): 0.5%; AUC [9, 12]: 1110 ng·h/mL; Cmax [9, 12]: 2760 ± 479 ng/mL; clearance [9, 12]: 76.2 ± 10.3 mL/min/kg; half-life [9, 12]: 11.5 ± 1 min; AUC [9, 13]: 43.8 ng·h/mL; Cmax [9, 13]: 75.6 ± 39.7 ng/mL; half-life [9, 13]: 19.8 ± 1.9 min; increase of rat microsomal stability compared to UCM765 ([5]; rat liver microsomes, versus UCM765): approximately 1.5 fold |
| COc1ccc(Br)c(N(C)CCNC(C)=O)c1 [Compound 19, N ‐{2‐[(2‐Bromo‐5‐methoxyphenyl)methylamino]ethyl}acetamide] | 8.9±1.4 | 78.5 ± 12.2 | – | 2.4 ± 0.1 | 18 ± 0.7 | – | 39.6±3.1 | 17.6 ± 1.5 | > 1000 | 823 ± 34.7 (≈ 2730 µM) | 0.83 ± 0.05 | full agonist | 93 ± 2 | 4.4 ± 0.2 | 94 ± 4 | moderate | Vd [9, 14]: 0.7 ± 0.1 L/kg; bioavailability ([9]; Sprague-Dawley CD): 3.6%; AUC [9, 14]: 1100 ng·h/mL; Cmax [9, 14]: 2970 ± 384 ng/mL; clearance [9, 14]: 76.4 ± 8.8 mL/min/kg; half-life [9, 14]: 13.5 ± 0.3 min; AUC [9, 15]: 319 ng·h/mL; Cmax [9, 15]: 456 ± 178 ng/mL; half-life [9, 15]: 26.2 ± 0.9 min; logD ([2]; n-octanol/water (50 mM MOPS buffer)): 1.85 ± 0.01 |
